Experimental data reported in publication PMC4184574, “Enantioselectivity in the cytochrome P450-dependent conversion of tegafur to 5-fluorouracil in human liver microsomes” (Pharmacology Research & Perspectives, 2013).
Entries after “also recorded” stand apart in the source; their conditions may differ. Structures can show the parent of a compound that is named as a salt.

What was measured:
Type in all cases: in vitro ADME
[1] = test system: CYP2A6 (tranylcypromine), CYP2E1 (diethyldithiocarbamate); CYP-mediated 5-FU formation from S-FT; test: Effects of CYP-selective inhibitors on 5-FU formation from FT enantiomers in pooled human hepatic microsomes; conditions: human, pooled human liver microsomes, pH 7.4, probe S-FT (S-tegafur) 30 μmol/L, 5-FU formation
Protocol: (§1) Metabolic reaction by S9 and cytosol (each 2 mg protein/mL) was carried out in 100 mmol/L phosphate (pH 7.4) because TPase requires phosphate ions for catalyzing the reaction. In some cases, insect microsomes expressing recombinant CYP isoforms (20 pmol/mL) were added to the incubation mixtures in either 50, 100 mmol/L phosphate (pH 7.4) or 100 mmol/L Tris (pH 7.4), depending on supplier's recommendation. Microsomal protein concentrations of all cDNA-expressed CYPs were adjusted to 0.5 mg protein/mL by adding control microsomes expressing NADPH-P450 oxidoreductase and cytochrome b5. The reaction for the assay of FT metabolism was initiated by adding the substrate, following preincubation for 5 min at 37°C. After incubation at 37°C, the reaction was stopped by adding three volumes of ice-cold acetonitrile. The incubation times of microsomes, cytosol, and S9 were 15, 15, and 30 min, respectively. After centrifugation, the supernatant was collected and stored at −80°C until the determination of 5-FU. Because a small portion of FT is nonenzymatically converted to 5-FU, the content of 5-FU spontaneously formed was subtracted from total yield obtained after incubation to correct the activity. The spontaneous degradation of FT to 5-FU was evaluated using enzymes inactivated by heating them at 100°C for 5 min.
(§2) The effects of inhibitors of CYP isoforms and TPase, and anti-CYP antibodies on 5-FU formation from FT enantiomers catalyzed by human hepatic preparations were evaluated. In inhibition assays, FT enantiomers were used at the concentrations of 30 μmol/L. 1-Aminobenzotriazole (1 mmol/L) and TPI (10 μmol/L) were used as nonselective inhibitors of CYP isoforms and TPase, respectively. […] Inhibitors were dissolved in methanol and diluted with 100 mmol/L phosphate (pH 7.4) or 100 mmol/L Tris (pH 7.4) so that the final concentration of solvent in the incubation mixture was 0.5%. Methanol was also added to the control at the same concentration as the conditions with inhibitors. Inhibitory effects of anti-CYP antibodies were examined by preincubating microsomes with the antibodies for 10 min on ice. Each polyclonal anti-CYP antibody was used at a concentration ranging 10–40 μL/mg microsomal protein according to the procedure recommended by the supplier. The reaction was performed similarly as described above, except for evaluating the inhibitory effect of furafylline.
(§3) Concentration of 5-FU was determined using a LC/MS/MS system. The analytical system consisted of a HP1100 liquid chromatograph (Agilent Technologies, CA) coupled with an API4000 triple-quadrupole mass spectrometer (Applied Biosystems, CA) equipped with Turbo V source and ESI interface. Sample separation was performed using an Unison UK-Amino column (2.0 mm i.d. × 100 mm, 3 μm; Imtakt, Kyoto, Japan) at a flow rate of 0.2 mL/min at 40°C. The mobile phase consisted of 10 mmol/L ammonium acetate/acetonitrile 10:90 (v/v). […] For quantification of 5-FU, the calibration curves were linear over the range 2–1000 ng/mL.
(§4) For evaluating the effect of furafylline, the preincubation of microsomes with an inhibitor and an NADPH-generating system for 20 min was performed, followed by the enantioselective metabolic reaction. Opened and closed bars represent 5-FU formation rate from R- and S-FT, respectively.

[2] = test system: CYP2A6 (tranylcypromine), CYP2E1 (diethyldithiocarbamate); CYP-mediated 5-FU formation from R-FT; test: as above; conditions: human, pooled human liver microsomes, pH 7.4, probe R-FT (R-tegafur) 30 μmol/L, 5-FU formation
Protocol: as §1, §2, §3, §4

[3] = Enantioselective conversion of FT to 5-FU in human hepatic S9 with CYP and TPase inhibitors; conditions: FT enantiomer 0.1 mmol/L, 1-aminobenzotriazole 1 mmol/L, TPI 10 μmol/L
Protocol: Insect microsomes expressing only NADPH-P450 oxidoreductase and cytochrome b5 were also used as control. These enzymes were stored at −80°C until use.
as §1
as §2, with “In inhibition assays, FT enantiomers were used at the concentrations of 30 μmol/L.” left out
Concentration of 5-FU was determined using a LC/MS/MS system. […] For quantification of 5-FU, the calibration curves were linear over the range 2–1000 ng/mL. […]

[4] = Effects of CYP-selective inhibitors on 5-FU formation from FT enantiomers in pooled human hepatic microsomes; conditions: pooled human hepatic microsomes; for effect on 5-FU formation from R-FT (in words): furafylline 25, quinidine 1, ketoconazole 1 μmol/L; for effect on 5-FU formation from S-FT (in words): furafylline 25, ticlopidine 20, quinidine 1, ketoconazole 1 μmol/L
Protocol: as §1, §2, §3, §4

Structure (SMILES)	effect on 5-FU formation from R-FT (in words) [3]	effect on 5-FU formation from S-FT (in words) [3]	effect on 5-FU formation from R-FT (in words) ([4]; R-FT 30 μmol/L)	effect on 5-FU formation from S-FT (in words) ([4]; S-FT 30 μmol/L)	also measured
N[C@@H]1C[C@H]1c1ccccc1 (racemic) [tranylcypromine, tranylcypromine hydrochloride]					inhibition at 15 min ([1]; pooled human hepatic microsomes, S-FT 30 μmol/L, tranylcypromine 5 μmol/L, diethyldithiocarbamate 100 μmol/L): ~90%; inhibition at 15 min ([2]; pooled human hepatic microsomes, R-FT 30 μmol/L, tranylcypromine 5 μmol/L, diethyldithiocarbamate 100 μmol/L): ~90%
Nn1nnc2ccccc21 [1-aminobenzotriazole, 1-Aminobenzotriazole]	markedly reduced; also recorded: strong inhibitory effect	markedly reduced; also recorded: strong inhibitory effect			
Cl.N=C1CCCN1Cc1[nH]c(=O)[nH]c(=O)c1Cl [TPI, 5-chloro-6-(2-iminopyrrolidin-1-yl) methyl-2, 4 (1H,3H)-pyrimidinedione hydrochloride]	only a minor effect; also recorded: only a slight effect	only a minor effect; also recorded: not observed			
CCN(CC)C(=S)S [diethyldithiocarbamate, sodium diethyldithiocarbamate]					inhibition at 15 min [1]: 34%; inhibition at 15 min [2]: 27%; amount of 5-FU formed from R-FT, % of the control value ([4]; R-FT 30 μmol/L, diethyldithiocarbamate 100 μmol/L): 73 % of the control value; amount of 5-FU formed from S-FT, % of the control value ([4]; S-FT 30 μmol/L, diethyldithiocarbamate 100 μmol/L): 64 % of the control value
Cc1nc2c([nH]1)c(=O)n(C)c(=O)n2Cc1ccco1 [furafylline]			no effect	no effect	
CC(=O)N1CCN(c2ccc(OCC3COC(Cn4ccnc4)(c4ccc(Cl)cc4Cl)O3)cc2)CC1 (centres unmarked) [ketoconazole]			no effect	no effect	
